This test relates to TFEB. The experiment in a line: TFEB nuclear translocation assay, HeLa wt cells. In kind it is cell-based. To be noted: Homo sapiens, HeLa, 2 h, 2 hrs compound treatment, Table 1 does not say HeLa wt or TRPML1 KO. In outline:
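Cells are plated overnight, exposed to compounds for 2 hrs at 37° C, fixed with 4% PFA, blocked, and stained overnight at 4° C with rabbit anti-TFEB. After Alexa 488 secondary and Hoechst, nuclei and a perinuclear ring are segmented to give a nuclear:ring intensity ratio and AC50.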

The AC50 is the concentration giving half of the maximal activity seen. A lower AC50 goes with activity at low concentration. Turning to `COCC1(C)C2CCC1CN(c1ccccc1NS(=O)(=O)c1ccc(S(=O)(=O)N(C)C)cc1)C2` (centres unmarked) [Compound A-829, N4-{2-[8-(methoxymethyl)-8-methyl-3-azabicyclo[3.2.1]octan-3-yl]phenyl}-N1,N1-dimethylbenzene-1,4-disulfonamide], the AC50 is no more than 2 µM.

Consider `CN1CC2(CCN(c3ccccc3NS(=O)(=O)c3ccc(S(=O)(=O)C(F)F)cc3)CC2)c2ccc(F)cc21` [Compound A-246, 4-difluoromethanesulfonyl-N-(2-{6-fluoro-1-methyl-1,2-dihydrospiro[indole-3,4′-piperidin]-1′-yl}phenyl)benzene-1-sulfonamide], for which the AC50 is no more than 2 µM.

`O=C(c1ccc(S(=O)(=O)Nc2ccccc2N2CCC(c3ccc(Cl)cc3F)CC2)cc1)C(F)(F)F` [Compound A-191, N-{2-[4-(4-chloro-2-fluorophenyl)piperidin-1-yl]phenyl}-4-(2,2,2-trifluoroacetyl)benzene-1-sulfonamide] displayed a concentration at half-maximal activity (AC50) of 2.01 to 8 µM.

`CN(C)S(=O)(=O)c1ccc(NC(c2ccccc2N2CCC(c3ccc(Cl)cc3F)CC2)C(F)(F)F)cc1` (centres unmarked) [Compound A-241, 4-((1-(2-(4-(4-chloro-2-fluorophenyl)piperidin-1-yl)phenyl)-2,2,2-trifluoroethyl)amino)-N,N-dimethylbenzenesulfonamide] showed an AC50 of no less than 10 µM.

In turn, `Cc1ccc(S(=O)(=O)Nc2ccccc2N2CCC3(CC2)COC(C)(C)C3)cc1` [Compound A-662, N-(2-{3,3-dimethyl-2-oxa-8-azaspiro[4.5]decan-8-yl}phenyl)-4-methylbenzene-1-sulfonamide] registered an AC50 of no more than 2 µM.

`C[C@@H]1CN(CC2CCN(c3c(F)cccc3NS(=O)(=O)c3ccc(S(C)(=O)=O)cc3)CC2)C[C@H](C)O1` [Compound A-776, N-[2-(4-{[(2R,6S)-2,6-dimethylmorpholin-4-yl]methyl}piperidin-1-yl)-3-fluorophenyl]-4-methanesulfonylbenzene-1-sulfonamide] displayed an AC50 of no more than 2 µM.

As for `CN(C)S(=N)(=O)c1ccc(S(=O)(=O)Nc2cccc(F)c2N2CCC(CN3CCOCC3(C)C)CC2)cc1` (centres unmarked) [Compound A-867, 4-[(2-{4-[(3,3-dimethylmorpholin-4-yl)methyl]piperidin-1-yl}-3-fluorophenyl)sulfamoyl]-N,N-dimethylbenzene-1-sulfonoimidamide], the AC50 was no more than 2 µM.

In the case of `COCC1(C)CCN(c2ccccc2NS(=O)(=O)c2cccc(C3CC3(F)F)c2)CC1` (centres unmarked) [Compound A-651, 3-(2,2-difluorocyclopropyl)-N-{2-[4-(methoxymethyl)-4-methylpiperidin-1-yl]phenyl}benzene-1-sulfonamide], the half-maximal activity concentration (AC50) is no more than 2 µM.

`CC(c1cccnc1N1CCC2(CC1)COC(C)(C)C2)S(=O)(=O)c1ccc(S(=O)(=O)N(C)C)cc1` (centres unmarked) [Compound A-775, 4-[1-(2-{3,3-dimethyl-2-oxa-8-azaspiro[4.5]decan-8-yl}pyridin-3-yl)ethanesulfonyl]-N,N-dimethylbenzene-1-sulfonamide] returned an AC50 of 8.01 to 9.99 µM.

Molecule `O=S(=O)(Nc1cc(Cl)ccc1N1CCCC2(CCCCO2)C1)c1ccc2c(c1)CCC2` (centres unmarked) [Compound A-316, N-(5-chloro-2-{1-oxa-8-azaspiro[5.5]undecan-8-yl}phenyl)-2,3-dihydro-1H-indene-5-sulfonamide] yielded an AC50 of 2.01 to 8 µM.

Molecule `CCCOc1ccc(S(=O)(=O)Nc2ccccc2N2CCN(C(=O)C(C)(C)C)CC2)cc1` [Compound A-573, N-{2-[4-(2,2-dimethylpropanoyl)piperazin-1-yl]phenyl}-4-propoxybenzene-1-sulfonamide] gave an AC50 of 8.01 to 9.99 µM.

The molecule `CN(C)S(=O)(=O)c1ccc(S(=O)(=O)Nc2ccccc2N2CCN(CC3CCCO3)CC2)cc1` (centres unmarked) [Compound A-495, N1,N1-dimethyl-N4-(2-{4-[(oxolan-2-yl)methyl]piperazin-1-yl}phenyl)benzene-1,4-disulfonamide] gave an AC50 of 8.01 to 9.99 µM.

In the case of `CN(C)S(=O)(=O)c1ccc(S(=O)(=O)Nc2ccccc2N2CCN(C(=O)C34CCCCC3C4)CC2)cc1` (centres unmarked) [Compound A-487, N4-[2-(4-{bicyclo[4.1.0]heptane-1-carbonyl}piperazin-1-yl)phenyl]-N1,N1-dimethylbenzene-1,4-disulfonamide], the concentration at half-maximal activity (AC50) is no more than 2 µM.

`O=S(=O)(Nc1cccc(F)c1N1CCC(CN2C3COCC2C3)CC1)c1ccc(C(F)(F)C2CC2)cc1` [Compound A-898, 4-(cyclopropyldifluoromethyl)-N-{3-fluoro-2-[4-({3-oxa-6-azabicyclo[3.1.1]heptan-6-yl}methyl)piperidin-1-yl]phenyl}benzene-1-sulfonamide] gave an AC50 of no less than 10 µM.

For the molecule `CC(=O)NC1(c2ccc(Cl)cc2F)CCN(c2ccccc2NS(=O)(=O)c2ccc(S(=O)(=O)N(C)C)cc2)CC1` [Compound A-153, N-[4-(4-chloro-2-fluorophenyl)-1-{2-[4-(dimethylsulfamoyl)benzenesulfonamido]phenyl}piperidin-4-yl]acetamide], the AC50 fell in the range of 2.01 to 8 µM.

Regarding `CN(C)S(=O)(=O)c1ccc(S(=O)(=O)Nc2ccc(F)cc2N2CCC3(CC2)COC(C)(C)C3)cc1` [Compound A-606, N4-(2-{3,3-dimethyl-2-oxa-8-azaspiro[4.5]decan-8-yl}-4-fluorophenyl)-N1,N1-dimethylbenzene-1,4-disulfonamide], the AC50 fell in the range of 2.01 to 8 µM.

As to `O=S(=O)(Nc1ccccc1N1CCC(c2ccc(Cl)cc2F)CC1)c1cccc(F)c1` [Compound A-78, N-{2-[4-(4-chloro-2-fluorophenyl)piperidin-1-yl]phenyl}-3-fluorobenzene-1-sulfonamide], the AC50 is no less than 10 µM.

Molecule `CN(C)S(=O)(=O)c1ccc(S(=O)(=O)Nc2cccc(Cl)c2N2CCCCC2)cc1` [Compound A-652, N4-[3-chloro-2-(piperidin-1-yl)phenyl]-N1,N1-dimethylbenzene-1,4-disulfonamide] showed an AC50 of no more than 2 µM.

Turning to `CN(C)S(=O)(=O)c1ccc(S(=O)(=O)N2CCN(C3CCN(c4ccc(Cl)cc4F)CC3)C2=O)cc1` [Compound A-86, 4-((3-(1-(4-chloro-2-fluorophenyl)piperidin-4-yl)-2-oxoimidazolidin-1-yl)sulfonyl)-N,N-dimethylbenzenesulfonamide], the AC50 is no less than 10 µM.

For the molecule `CN1CC2(CCN(c3ccccc3NS(=O)(=O)c3ccc(S(=O)(=O)N(C)C)cc3)CC2)c2ncc(Cl)cc21` [Compound A-268, N4-(2-{6′-chloro-1′-methyl-1′,2′-dihydrospiro[piperidine-4,3′-pyrrolo[3,2-b]pyridin]-1-yl}phenyl)-N1,N1-dimethylbenzene-1,4-disulfonamide], the AC50 is no more than 2 µM.

`CN(C)C1(c2ccc(Cl)cc2F)CCN(c2ccccc2NS(=O)(=O)c2ccc(S(=O)(=O)N(C)C)cc2)CC1` [Compound A-211, N4-{2-[4-(4-chloro-2-fluorophenyl)-4-(dimethylamino)piperidin-1-yl]phenyl}-N1,N1-dimethylbenzene-1,4-disulfonamide] displayed an AC50 of no more than 2 µM.

In turn, `CC1(C)CC2(CCN(c3ccccc3NS(=O)(=O)c3ccc(S(C)(=O)=O)c(F)c3)CC2)CO1` [Compound A-660, N-(2-{3,3-dimethyl-2-oxa-8-azaspiro[4.5]decan-8-yl}phenyl)-3-fluoro-4-methanesulfonylbenzene-1-sulfonamide] yielded an AC50 of 8.01 to 9.99 µM.

Molecule `O=S(=O)(Nc1ccccc1N1CCN(c2ccc(Cl)cc2F)CC1)c1ccccn1` [Compound A-20, N-{2-[4-(4-chloro-2-fluorophenyl)piperazin-1-yl]phenyl}pyridine-2-sulfonamide] came in with an AC50 of no more than 2 µM.

For the origin of these results see patent publication US20230104936A1, “TRPML MODULATORS” (Casma Therapeutics, Inc., priority 2019, published 2023).
